# Assay results as given in article PMC6364417, “Kinase inhibitor library screening identifies synergistic drug combinations effective in sensitive and resistant melanoma cells” (Journal of Experimental & Clinical Cancer Research : CR, 2019).
# What was measured:
# Assay in all cases: Kinase inhibitor library screening, PrestoBlue cell viability, 1 or 10 μM, 72 h
# IGR37 cells (parental) = details: IGR37 Parental, 72 h
# Description: (§1) After 72 h of treatment, cell viability was assessed using the PrestoBlue Cell Viability Reagent (ThermoFisher Scientific). Measurements were performed with the CLARIOstar Monochromator microplate reader (BMG Labtech).
# (§2) Kinase inhibitor library screening. […] Each cell line was treated in its sensitive form (parental), and also as 2 resistant derivatives, which were made resistant to either Vemurafenib (XP) or Dabrafenib (GP). Drugs were added at 2 different concentrations, 1 and 10 μM, for 72 h and cell viability was assessed using the PrestoBlue Cell Viability assay. Results are depicted as % viability compared to untreated cells. Each cell line was analyzed at least in duplicate. […] (XLSX 95 kb)
# [1] = tested on: 501Mel-XP cells (Vemurafenib-resistant); details: 501Mel XP, 72 h; for Cell viability in kinase inhibitor library screening, 501Mel XP, 1μΜ / Cell viability in kinase inhibitor library screening, 501Mel XP, 10μΜ: in %
# Description: as §1, §2
# [2] = tested on: A375-GP cells (Dabrafenib-resistant); details: A375 GP, 72 h
# Description: as §1, §2
# 501Mel cells (parental) = details: 501Mel Parental, 72 h; for Cell viability in kinase inhibitor library screening, 501Mel Parental, 1μΜ / Cell viability in kinase inhibitor library screening, 501Mel Parental, 10μΜ: in %
# Description: as §1, §2
# [3] = tested on: 501Mel-GP cells (Dabrafenib-resistant); details: 501Mel GP, 72 h; for Cell viability in kinase inhibitor library screening, 501Mel GP, 1μΜ / Cell viability in kinase inhibitor library screening, 501Mel GP, 10μΜ: in %
# Description: as §1, §2
# A375 cells (parental) = details: A375 Parental, 72 h
# Description: as §1, §2
# [4] = tested on: IGR37-GP cells (Dabrafenib-resistant); details: IGR37 GP, 72 h; for Cell viability in kinase inhibitor library screening, IGR37 GP, 1μΜ: in %
# Description: as §1, §2
# [5] = tested on: A375-XP cells (Vemurafenib-resistant); details: A375 XP, 72 h
# Description: as §1, §2
# [6] = tested on: IGR37-XP cells (Vemurafenib-resistant); details: IGR37 XP, 72 h; for Cell viability in kinase inhibitor library screening, IGR37 XP, 1μΜ: in %
# Description: as §1, §2
SMILES,"Cell viability in kinase inhibitor library screening, IGR37 Parental, 10μΜ (IGR37 cells (parental); 10μΜ, in %)","Cell viability in kinase inhibitor library screening, 501Mel XP, 1μΜ ([1]; 1μΜ)","Cell viability in kinase inhibitor library screening, 501Mel XP, 10μΜ ([1]; 10μΜ)","Cell viability in kinase inhibitor library screening, A375 GP, 1μΜ ([2]; 1μΜ)","Cell viability in kinase inhibitor library screening, A375 GP, 10μΜ ([2]; 10μΜ)","Cell viability in kinase inhibitor library screening, 501Mel Parental, 1μΜ (501Mel cells (parental); 1μΜ)","Cell viability in kinase inhibitor library screening, 501Mel Parental, 10μΜ (501Mel cells (parental); 10μΜ)","Cell viability in kinase inhibitor library screening, 501Mel GP, 1μΜ ([3]; 1μΜ)","Cell viability in kinase inhibitor library screening, 501Mel GP, 10μΜ ([3]; 10μΜ)","Cell viability in kinase inhibitor library screening, A375 Parental, 10μΜ (A375 cells (parental); 10μΜ)","Cell viability in kinase inhibitor library screening, A375 Parental, 1μΜ (A375 cells (parental); 1μΜ)","Cell viability in kinase inhibitor library screening, IGR37 GP, 10μΜ ([4]; 10μΜ) [%]","Cell viability in kinase inhibitor library screening, IGR37 GP, 1μΜ ([4]; 1μΜ)","Cell viability in kinase inhibitor library screening, A375 XP, 10μΜ ([5]; 10μΜ)","Cell viability in kinase inhibitor library screening, IGR37 XP, 10μΜ ([6]; 10μΜ) [%]","Cell viability in kinase inhibitor library screening, IGR37 XP, 1μΜ ([6]; 1μΜ)",further results
CCCS(=O)(=O)Nc1ccc(F)c(C(=O)c2c[nH]c3ncc(Cl)cc23)c1F [PLX-4720],31.4,96.2,64.4,83.9,78.1,63.2,55.8,104.7,77.9,14.6,32.1,79,97.0,79.1,52.5,99.4,"Cell viability in kinase inhibitor library screening, IGR37 Parental, 1μΜ (IGR37 cells (parental); 1μΜ, in %): 44.1; Cell viability in kinase inhibitor library screening, A375 XP, 1μΜ ([5]; 1μΜ): 102.9"
Cc1ccc(-n2nc(C(C)(C)C)cc2NC(=O)Nc2ccc(OCCN3CCOCC3)c3ccccc23)cc1 [BIRB 796 (Doramapimod)],97.2,98.8,86.9,103.9,76.2,96.5,84.9,105.5,94.6,86.4,99.9,78.5,89.9,85.3,71.3,94.7,–
O=C(Nc1cccc(Cl)c1)Nc1ncc(CCNc2ncnc3ccsc23)s1 [SNS-314],–,–,–,–,–,–,–,–,–,–,–,–,–,–,–,–,cell viability (kinase inhibitor library screening) (IGR37 cells (parental); 1μΜ): 81.9%; cell viability (kinase inhibitor library screening) (IGR37 cells (parental); 10μΜ): 57.7%; cell viability (kinase inhibitor library screening) ([1]; 1μΜ): 72.3%; cell viability (kinase inhibitor library screening) ([1]; 10μΜ): 46.6%; cell viability (kinase inhibitor library screening) ([2]; 1μΜ): 47.1%; cell viability (kinase inhibitor library screening) ([2]; 10μΜ): 46.9%; cell viability (kinase inhibitor library screening) (501Mel cells (parental); 1μΜ): 79.7%; cell viability (kinase inhibitor library screening) (501Mel cells (parental); 10μΜ): 75.7%; cell viability (kinase inhibitor library screening) ([3]; 1μΜ): 79.1%; cell viability (kinase inhibitor library screening) ([3]; 10μΜ): 58.4%; cell viability (kinase inhibitor library screening) (A375 cells (parental); 10μΜ): 46.0%; cell viability (kinase inhibitor library screening) (A375 cells (parental); 1μΜ): 47.7%; cell viability (kinase inhibitor library screening) ([4]; 1μΜ): 93.6%; cell viability (kinase inhibitor library screening) ([4]; 10μΜ): 58.8%; cell viability (kinase inhibitor library screening) ([5]; 1μΜ): 56.7%; cell viability (kinase inhibitor library screening) ([5]; 10μΜ): 55.3%; cell viability (kinase inhibitor library screening) ([6]; 1μΜ): 88.3%; cell viability (kinase inhibitor library screening) ([6]; 10μΜ): 20.8%
